test system: KRAS G12V dependent lung adenocarcinoma cell line, NCI-H441; assay: Cellular pERK (Thr202/Tyr204) FRET/HTRF assay; format: cell-based; conditions: Homo sapiens, NCI-H441, cellular pERK (Thr202/Tyr204) HTRF, NCI-H441 cells
Procedure, shortened: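 NCI-H441 cells (KRAS G12V) plated overnight at 37 °C, then exposed to compounds for 1 hr at 37 °C, 5% CO2; DMSO as negative control. Lysates read by Eu-cryptate/d2 sandwich FRET (665 nm) for ERK1/2 phosphorylated at Thr202/Tyr204; IC50 from curve fit.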

| SMILES | IC50 [µM] |
| --- | --- |
| C=C1CN2CCC3(CC3)[C@@]2(COc2nc(N3CCCC[C@H]4[C@H](F)[C@H]43)c3cnc(-c4cc(N)cc(Cl)c4C(F)(F)F)c(F)c3n2)C1 [Example 424, 3-chloro-5-(8-fluoro-4-((1S,7R,8S)-8-fluoro-2-azabicyclo[5.1.0]octan-2-yl)-2-(((R)-6′-methylenetetrahydrospiro[cyclopropane-1,1′-pyrrolizin]-7a′(5′H)-yl)methoxy)pyrido[4,3-d]pyrimidin-7-yl)-4-(trifluoromethyl)aniline] | < 0.05 |
| [2H]C([2H])(Oc1nc(N2CCOC[C@@H]3[C@@H](F)[C@@H]32)c2cc(Cl)c(-c3cc(N)cc(C4CC4)c3C(F)(F)F)c(F)c2n1)[C@@]12CCCN1C[C@H](F)C2 [Example 184, 3-(6-chloro-8-fluoro-4-((1R,7R,8R)-8-fluoro-5-oxa-2-azabicyclo[5.1.0]octan-2-yl)-2-(((2R,7aS)-2-fluorotetrahydro-1H-pyrrolizin-7a(5H)-yl)methoxy-d2)quinazolin-7-yl)-5-cyclopropyl-4-(trifluoromethyl)aniline] | 0.5 to 10 |
| C#Cc1c(F)ccc2cc(N)cc(-c3ncc4c(N5CCOC[C@H]6[C@H](F)[C@H]65)nc(OC[C@]56C/C(=C\F)CN5CCC65CC5)nc4c3C)c12 [Example 430, 5-ethynyl-6-fluoro-4-(4-((1S,7S,8S)-8-fluoro-5-oxa-2-azabicyclo[5.1.0]octan-2-yl)-2-(((R,E)-6-(fluoromethylene)tetrahydrospiro[cyclopropane-1,1′-pyrrolizin]-7a′(5′H)-yl)methoxy)-8-methylpyrido[4,3-d]pyrimidin-7-yl)naphthalen-2-amine] | < 0.05 |
| [2H]C([2H])(F)Oc1c(F)ccc2cccc(-c3ncc4c(N5CCCC[C@H]6[C@H](F)[C@H]65)nc(OC[C@]56CC(=C)CN5CCC65CC5)nc4c3F)c12 [Example 407, (R)-7a′-(((8-fluoro-7-(7-fluoro-8-(fluoromethoxy-d2)naphthalen-1-yl)-4-((1S,7R,8S)-8-fluoro-2-azabicyclo[5.1.0]octan-2-yl)pyrido[4,3-d]pyrimidin-2-yl)oxy)methyl)-6′-methylenehexahydrospiro[cyclopropane-1,1′-pyrrolizine]] | < 0.05 |
| Cc1c(F)c(N)cc(-c2ncc3c(N4CCCC[C@@H]5[C@@H](F)[C@@H]54)nc(OC[C@@]45CCCN4C/C(=C\F)C5)nc3c2F)c1C(F)(F)F [Example 399, 2-fluoro-5-(8-fluoro-4-((1R,7S,8R)-8-fluoro-2-azabicyclo[5.1.0]octan-2-yl)-2-(((S,Z)-2-(fluoromethylene)tetrahydro-1H-pyrrolizin-7a(5H)-yl)methoxy)pyrido[4,3-d]pyrimidin-7-yl)-3-methyl-4-(trifluoromethyl)aniline] | 0.5 to 10 |
| C#Cc1c(F)ccc2cccc(-c3ncc4c(N5CCOC[C@H]6[C@H](F)[C@H]65)nc(OC[C@@]56CCCN5CC(=C)C6)nc4c3F)c12 [Example 143, (1S,7S,8S)-2-(7-(8-ethynyl-7-fluoronaphthalen-1-yl)-8-fluoro-2-(((S)-2-methylenetetrahydro-1H-pyrrolizin-7a(5H)-yl)methoxy)pyrido[4,3-d]pyrimidin-4-yl)-8-fluoro-5-oxa-2-azabicyclo[5.1.0]octane] | < 0.05 |
| C#Cc1c(F)ccc2cc(N)cc(-c3ncc4c(N5CCOC[C@H]6[C@H](F)[C@H]65)nc(OC[C@@]56CCCN5[C@H](C)[C@H](F)C6)nc4c3F)c12 [Example 277, 5-ethynyl-6-fluoro-4-(8-fluoro-2-(((2R,3R,7aS)-2-fluoro-3-methyltetrahydro-1H-pyrrolizin-7a(5H)-yl)methoxy)-4-((1S,7S,8S)-8-fluoro-5-oxa-2-azabicyclo[5.1.0]octan-2-yl)pyrido[4,3-d]pyrimidin-7-yl)naphthalen-2-amine] | < 0.05 |
| C#Cc1c(F)ccc2cccc(-c3ncc4c(N5CCCC[C@H]6[C@H](F)[C@H]65)nc(OC[C@]56CC(=C(F)F)CN5CCC65CC5)nc4c3F)c12 [Example 405, (R)-6′-(Difluoromethylene)-7a′-(((7-(8-ethynyl-7-fluoronaphthalen-1-yl)-8-fluoro-4-((1S,7R,8S)-8-fluoro-2-azabicyclo[5.1.0]octan-2-yl)pyrido[4,3-d]pyrimidin-2-yl)oxy)methyl)hexahydrospiro[cyclopropane-1,1′-pyrrolizine]] | < 0.05 |
| Cc1c(F)c(N)cc(-c2ncc3c(N4CCCC[C@@H]5[C@@H](F)[C@@H]54)nc(OC[C@@]45CCCN4C/C(=C/F)C5)nc3c2F)c1C(F)(F)F [Example 397, 2-fluoro-5-(8-fluoro-4-((1R,7S,8R)-8-fluoro-2-azabicyclo[5.1.0]octan-2-yl)-2-(((S,E)-2-(fluoromethylene)tetrahydro-1H-pyrrolizin-7a(5H)-yl)methoxy)pyrido[4,3-d]pyrimidin-7-yl)-3-methyl-4-(trifluoromethyl)aniline] | 0.5 to 10 |
| [2H]C([2H])([2H])Oc1c(F)c(F)c(F)c2cc(N)cc(-c3ncc4c(N5CCOC[C@H]6[C@H](F)[C@H]65)nc(OC[C@@]56CCCN5C/C(=C\F)C6)nc4c3F)c12 [Example 133, 6,7,8-trifluoro-4-(8-fluoro-4-((1S,7S,8S)-8-fluoro-5-oxa-2-azabicyclo[5.1.0]octan-2-yl)-2-(((S,Z)-2-(fluoromethylene)tetrahydro-1H-pyrrolizin-7a(5H)-yl)methoxy)pyrido[4,3-d]pyrimidin-7-yl)-5-(methoxy-d3)naphthalen-2-amine] | < 0.05 |
| C#Cc1c(F)ccc2cc(N)cc(-c3ncc4c(N5CCOC[C@H]6[C@H](F)[C@H]65)nc(OC[C@]56C/C(=C/F)CN5CCC65CC5)nc4c3C)c12 [Example 431, 5-Ethynyl-6-fluoro-4-(4-((1S,7S,8S)-8-fluoro-5-oxa-2-azabicyclo[5.1.0]octan-2-yl)-2-(((R,Z)-6′-(fluoromethylene)tetrahydrospiro[cyclopropane-1,1′-pyrrolizin]-7a′(5′H)-yl)methoxy)-8-methylpyrido[4,3-d]pyrimidin-7-yl)naphthalen-2-amine] | < 0.05 |
| [2H]C([2H])(Oc1nc(N2CCOC[C@@H]3[C@H]2[C@@]3([2H])F)c2cnc(-c3cc(N)cc4ccc(F)c(C#C)c34)c(F)c2n1)[C@@]12CCCN1C[C@H](F)C2 [Example 185, 5-ethynyl-6-fluoro-4-(8-fluoro-4-((1S,7S,8S)-8-fluoro-5-oxa-2-azabicyclo[5.1.0]octan-2-yl-8-d)-2-(((2R,7aS)-2-fluorotetrahydro-1H-pyrrolizin-7a(5H)-yl)methoxy-d2)pyrido[4,3-d]pyrimidin-7-yl)naphthalen-2-amine] | < 0.05 |
| C#Cc1c(Cl)ccc2cc(N)cc(-c3ncc4c(N5CCOC[C@H]6[C@H](Cl)[C@H]65)nc(OC[C@@H]5CCCN5C)nc4c3F)c12 [Example 321, 6-chloro-4-(4-((1S,7S,8S)-8-chloro-5-oxa-2-azabicyclo[5.1.0]octan-2-yl)-8-fluoro-2-(((S)-1-methylpyrrolidin-2-yl)methoxy)pyrido[4,3-d]pyrimidin-7-yl)-5-ethynylnaphthalen-2-amine] | < 0.05 |
| [2H]C([2H])(Oc1nc(N2CC[C@@H](C#N)C[C@@H]3[C@@H](F)[C@@H]32)c2cnc(-c3cc(N)cc4ccc(F)c(C#C)c34)c(F)c2n1)[C@@]12CCCN1C[C@H](F)C2 [Example 305, (1R,5S,7S,8R)-2-(7-(3-amino-8-ethynyl-7-fluoronaphthalen-1-yl)-8-fluoro-2-(((2R,7aS)-2-fluorotetrahydro-1H-pyrrolizin-7a(5H)-yl)methoxy-d2)pyrido[4,3-d]pyrimidin-4-yl)-8-fluoro-2-azabicyclo[5.1.0]octane-5-carbonitrile] | 0.05 to 0.5 |

same assay, conditions: Homo sapiens, NCI-H441, cellular pERK HTRF, NCI-H441 (KRAS G12V) cells

| SMILES | IC50 [µM] |
| --- | --- |
| [2H]C([2H])(Oc1nc(N2CCOC[C@H]3[C@H](F)[C@H]32)c2cnc(-c3cc(N)cc4ccc(F)c(C#C)c34)c(CC)c2n1)[C@@]12CCCN1C[C@H](F)C2 [Example 456, 4-(8-Ethyl-4-((1S,7S,8S)-8-fluoro-5-oxa-2-azabicyclo[5.1.0]octan-2-yl)-2-(((2R,7aS)-2-fluorotetrahydro-1H-pyrrolizin-7a(5H)-yl)methoxy-d2)pyrido[4,3-d]pyrimidin-7-yl)-5-ethynyl-6-fluoronaphthalen-2-amine] | < 0.05 |

same assay, conditions: Homo sapiens, NCI-H441, pERK HTRF, NCI-H441 cells (KRAS G12V)

| SMILES | IC50 [µM] |
| --- | --- |
| C#Cc1c(F)ccc2cc(O)cc(-c3ncc4c(N5CCCC[C@@H]6C[C@@H]65)nc(OC[C@@]56CCCN5C[C@H](F)C6)nc4c3F)c12 [Example 1, 4-(4-((1S,7R)-2-Azabicyclo[5.1.0]octan-2-yl)-8-fluoro-2-(((2R,7aS)-2-fluorotetrahydro-1H-pyrrolizin-7a(5H)-yl)methoxy)pyrido[4,3-d]pyrimidin-7-yl)-5-ethynyl-6-fluoronaphthalen-2-ol] | 0.5 to 10 |
| [2H]C([2H])(F)Oc1c(F)ccc2cccc(-c3ncc4c(N5CCCC[C@H]6[C@H](F)[C@H]65)nc(OC([2H])([2H])[C@@]56CCCN5C[C@H](F)C6)nc4c3F)c12 [Example 72, 8-Fluoro-7-(7-fluoro-8-(fluoromethoxy-d2)naphthalen-1-yl)-4-((1S,7R,8S)-8-fluoro-2-azabicyclo[5.1.0]octan-2-yl)-2-(((2R,7aS)-2-fluorotetrahydro-1H-pyrrolizin-7a(5H)-yl)methoxy-d2)pyrido[4,3-d]pyrimidine] | < 0.05 |

same assay, conditions: cellular pERK HTRF, NCI-H441 (KRAS G12V) cells

| SMILES | IC50 [µM] |
| --- | --- |
| [2H]C([2H])(Oc1nc(N2CCOC[C@H]3[C@H](F)[C@H]32)c2cc(F)c(-c3cc(O)cc4ccc(F)c(C#C)c34)c(F)c2n1)[C@@]12CCCN1C[C@H](F)C2 (atropisomer, axis not shown; (aS)) [Example 453, 4-((R)-6,8-difluoro-4-((1S,7S,8S)-8-fluoro-5-oxa-2-azabicyclo[5.1.0]octan-2-yl)-2-(((2R,7aS)-2-fluorotetrahydro-1H-pyrrolizin-7a(5H)-yl)methoxy-d2)quinazolin-7-yl)-5-ethynyl-6-fluoronaphthalen-2-ol] | < 0.05 |

Reference: US20250282799A1, “SUBSTITUTED PYRIDO[4,3-d]PYRIMIDINES AS KRAS MODULATORS” (Alterome Therapeutics, Inc., priority 2023, published 2025)
